Data reported in paper PMC11852925 (2025).
One block for each molecule: values may come before it.

Legend:
Assay in all cases: fluorescence titration, multiwavelength global analysis
[1] = system: ds26 (DNA, duplex) CAATCGGATCGAATTCGATCCGATTG; conditions: 100 mM KCl, 10 mM K-phosphate pH 7.0, 295 K
[2] = system: hTel22 (DNA, G4) AGGGTTAGGGTTAGGGTTAGGG; conditions: 100 mM KCl, 10 mM K-phosphate pH 7.0, 295 K, 1:1 complex
[3] = system: hTel45 (DNA, G4) GGGTTAGGGTTAGGGTTAGGGTTAGGGTTAGGGTTAGGGTTAGGG; conditions: 100 mM KCl, 10 mM K-phosphate pH 7.0, 295 K
[4] = system: c-myc22 (DNA, G4) GAGGGTGGGGAGGGTGGGGAAG; conditions: 100 mM KCl, 10 mM K-phosphate pH 7.0, 295 K, 1:1 complex

logK ([1]; 1:1 complex, cumulative 1:2 12.48, 1:3 17.70): 5.82 ± 0.02
logK ([2]; cumulative 1:2 14.68, 1:3 20.37): 7.67 ± 0.05
logK ([3]; cumulative constant of 1:2 (DNA:dyad) complex, 1:4 26.88, 2:1 11.55): 13.80 ± 0.05
logK ([4]; cumulative 1:2 14.36, 2:1 11.69): 7.77 ± 0.12
Structure (SMILES): CN(C)CCCN1C(=O)c2ccc3c4c(c(NCc5cn(CCCNC(=O)c6ccc7[nH]c8c([nH]c7c6)c6c(=O)n(CCCN(C)C)c(=O)c7ccc9c(=O)n(CCCN(C)C)c(=O)c8c9c76)nn5)cc(c24)C1=O)C(=O)N(CCCN(C)C)C3=O

logK ([1]; per site of 1:2 complex, cumulative 1:2 15.25, 1:4 29.15): 7.6
logK ([2]; ligand dimerization (logK 6.6) included, cumulative 1:2 logK 14.04): 7.64 ± 0.16
logK ([3]; cumulative constant of 1:2 (DNA:ligand) complex, 1:4 28.6, dimerization included): 14.41 ± 0.05
logK ([4]; dimerization (logK 6.6) included, cumulative 1:2 14.74): 6.89 ± 0.05
Structure (SMILES): CCCNC(=O)c1ccc2[nH]c3c([nH]c2c1)c1c(=O)n(CCCN(C)C)c(=O)c2ccc4c(=O)n(CCCN(C)C)c(=O)c3c4c21

logK ([1]; 1:1 complex, cumulative 1:2 12.95, 1:3 18.35): 6.50 ± 0.03
logK ([2]; cumulative 1:2 15.71, 2:1 (DNA:dyad) 14.14): 8.93 ± 0.07
logK ([3]; 1:1 complex, cumulative 1:2 12.94, 1:4 25.52, 2:1 13.24): 7.91 ± 0.07
logK ([4]; cumulative 1:2 13.78): 6.16 ± 0.02
Structure (SMILES): CN(C)CCCN1C(=O)c2ccc3c4c(c(NCCCCCCCNC(=O)c5ccc6[nH]c7c([nH]c6c5)c5c(=O)n(CCCN(C)C)c(=O)c6ccc8c(=O)n(CCCN(C)C)c(=O)c7c8c65)cc(c24)C1=O)C(=O)N(CCCN(C)C)C3=O
